Results on two compounds are retold here after ChEMBL document CHEMBL3045775, “Methyl jasmonate-induced suppression of anthracnose rot in tomato fruit” (Crop Prot, 2007).

Calls of active or inactive are those of the source. The rule behind the calls is not given here.

Series [1] relates to Colletotrichum coccodes. Briefly: Antifungal activity against Colletotrichum coccodes infected tomato fruit assessed as decrease in fruit cracking at 100% v/v incubated for 7 days post-inoculation relative to control. It counts as functional, organism-based.
Series [2] has as its system Colletotrichum coccodes. Briefly: Antifungal activity against Colletotrichum coccodes infected tomato fruit assessed as suppression in lesion at 41.8 ul/l incubated for 20 min followed by compound wash out measured after 6 days relative to control. The format is functional, organism-based.
In series [3] the test system is Colletotrichum coccodes. Briefly: Antifungal activity against Colletotrichum coccodes infected tomato fruit assessed as suppression in lesion at 41.8 ul/l inoculated on fruit pretreated with compound for 20 min measured after 9 days relative to control. It counts as functional.
For series [4], the system named is Colletotrichum coccodes. Briefly: Induction of Colletotrichum coccodes growth infected tomato fruit assessed as fruit cracking at 100% v/v incubated for 7 days post-inoculation relative to control. The format is organism-based. The settings on record: in vivo, 168 h.
Series [5] concerns Colletotrichum coccodes. The experiment in a line: Antifungal activity against Colletotrichum coccodes infected tomato fruit assessed as spore germination at 44.8 ul/l inoculated on fruit pre-treated with compound for 7 days followed by 7 days incubation measured 24 hr post spore-inoculation on medium (reference value: 88.8 +/- 5.19%). It counts as functional.
The test system of series [6] is Colletotrichum coccodes. The experiment in a line: Antifungal activity against Colletotrichum coccodes infected tomato fruit assessed as lesion area at 44.8 ul/l incubated for 7 days post-inoculation (reference value: 1.64 +/- 0.62 cm2). The format is functional.
In series [7] the test system is Colletotrichum coccodes. The experiment in a line: Antifungal activity against Colletotrichum coccodes assessed as spore germination at 44.8 ul/l inoculated on medium pretreated with compound for 24 hr followed by compound wash-out measured after 24 hr (100%). It counts as functional.
Series [8] relates to Colletotrichum coccodes. The experiment in a line: Antifungal activity against Colletotrichum coccodes assessed as spore production at 44.8 ul/l inoculated on medium pretreated with compound for 7 days followed by compound wash-out measured after 9 days (7.7 +/- 4.15 10^5/ml). The format is functional.
The subject of series [9] is Colletotrichum coccodes. The experiment in a line: Antifungal activity against Colletotrichum coccodes assessed as colony area at 44.8 ul/l inoculated on medium pretreated with compound for 7 days followed by compound wash-out measured after 7 days (5.98 +/- 0.36 cm2). The format is functional.
Series [10] has as its system Colletotrichum coccodes. Briefly: Antifungal activity against Colletotrichum coccodes assessed as spore germination at 44.8 ul/l incubated for 24 hr post-inoculation (reference value: 100%). The format is functional.
The subject of series [11] is Colletotrichum coccodes. The experiment in a line: Antifungal activity against Colletotrichum coccodes assessed as spore production at 44.8 ul/l incubated for 9 days post-inoculation (reference value: 7.1 +/- 2.44 10^5/ml). It counts as functional.
For series [12], the system named is Colletotrichum coccodes. Briefly: Antifungal activity against Colletotrichum coccodes assessed as colony area at 44.8 ul/l incubated for 7 days post-inoculation (reference value: 9.55 +/- 0.25 cm2). It counts as functional.
Series [13] deals with Colletotrichum coccodes. The experiment in a line: Antifungal activity against Colletotrichum coccodes infected tomato fruit assessed as spore production at 44.8 ul/l inoculated on fruit pre-treated with compound for 7 days measured after 9 days (reference value: 11.2 +/- 4.29 10^5/ml). The format is functional.
In series [14] the test system is Colletotrichum coccodes. The experiment in a line: Antifungal activity against Colletotrichum coccodes infected tomato fruit assessed as lesion area at 44.8 ul/l inoculated on fruit pretreated with compound for 7 days measured after 7 days (reference value: 4.33 +/- 0.6 cm2). The format is functional.
Series [15] concerns Colletotrichum coccodes. The experiment in a line: Antifungal activity against Colletotrichum coccodes infected tomato fruit assessed as spore germination at 44.8 ul/l incubated for 7 days post-inoculation followed by spore inoculation on medium measured after 24 hr (reference value: 96.5 +/- 2.66%). The format is functional.
Series [16] relates to Colletotrichum coccodes. Briefly: Antifungal activity against Colletotrichum coccodes infected tomato fruit assessed as spore production at 44.8 ul/l incubated for 9 days post-inoculation (reference value: 1.6 +/- 0.92 10^5/ml). It counts as functional.

For the compound `Cl`, the result in the series on Colletotrichum coccodes [1] was Active.

Turning to `CC/C=C\CC1C(=O)CCC1CC(=O)OC` (configuration not stated) [METHYL JASMONATE], the outcome in the series with Colletotrichum coccodes [2] was inactive. Further, the Activity in the series on Colletotrichum coccodes [3] is 20%; with Colletotrichum coccodes [4] it was 23%; with Colletotrichum coccodes [5] it was 55.2%; in the series on Colletotrichum coccodes [6] it was 2.79 cm2; in the series on Colletotrichum coccodes [7] it was 99%; with Colletotrichum coccodes [8], 7.6 ×10⁵ /ml. In addition, the Activity in the series on Colletotrichum coccodes [9] was determined as 4.55 cm2; in the series on Colletotrichum coccodes [10], 99.5%; in the series with Colletotrichum coccodes [11], 6.9 ×10⁵ /ml; in the series with Colletotrichum coccodes [12] it was 8.18 cm2; in the series on Colletotrichum coccodes [13] it was 7.7 ×10⁵ /ml; with Colletotrichum coccodes [14], 4.74 cm2. The Activity is 51.6% with Colletotrichum coccodes [15] and 1 ×10⁵ /ml in the series with Colletotrichum coccodes [16]. Moreover, the result in the series with Colletotrichum coccodes [1] was Active.
